Results from the NIST ThermoML archive (doi:10.1016/j.jct.2015.08.021).
± gives the expanded uncertainty stated by the source.

Experiments:
[1] = refractive index (Na D-line) (dimensionless); details: 101.3 kPa, Liquid, Standard Abbe refractometry
[2] = relative permittivity at various frequencies (dimensionless); details: 101.3 kPa, Liquid, Frequency=0.1 MHz, Coaxial cylinder capacitor
[3] = 298.15 K; 101.33 kPa; Liquid; Vibrating tube method
[4] = refractive index (Na D-line) (dimensionless); xn = mol fraction of the nth substance listed; details: 101.3 kPa, Liquid, Standard Abbe refractometry
[5] = relative permittivity at various frequencies (dimensionless); xn = mol fraction of the nth substance listed; details: 101.3 kPa, Liquid, Frequency=0.1 MHz, Coaxial cylinder capacitor

OCCCCO [1,4-butanediol]
Details	refractive index, 298.15 K	refractive index, 308.15 K	refractive index, 318.15 K	relative permittivity, 298.15 K	relative permittivity, 308.15 K	relative permittivity, 318.15 K
[1]	1.4445 ± 0.0011	1.4417 ± 0.0011	1.4393 ± 0.0011	–	–	–
[2]	–	–	–	31.587 ± 0.38	29.482 ± 0.35	27.203 ± 0.33

Details	mass density [kg/m3]
[3]	1013.4 ± 0.86

OCCCCO [1,4-butanediol] + CC(C)CCO
Details	refractive index, 298.15 K	refractive index, 308.15 K	refractive index, 318.15 K	relative permittivity, 298.15 K	relative permittivity, 308.15 K	relative permittivity, 318.15 K
[4], x1 = 0.101	1.4088 ± 0.0011	1.4052 ± 0.0011	1.4014 ± 0.0011	–	–	–
[4], x1 = 0.2	1.4123 ± 0.0011	1.4087 ± 0.0011	1.4055 ± 0.0011	–	–	–
[4], x1 = 0.299	1.4165 ± 0.0011	1.4122 ± 0.0011	1.4093 ± 0.0011	–	–	–
[4], x1 = 0.4	1.4203 ± 0.0011	1.4166 ± 0.0011	1.4137 ± 0.0011	–	–	–
[4], x1 = 0.5	1.4244 ± 0.0011	1.4207 ± 0.0011	1.4175 ± 0.0011	–	–	–
[4], x1 = 0.6	1.4291 ± 0.0011	1.4252 ± 0.0011	1.4222 ± 0.0011	–	–	–
[4], x1 = 0.699	1.4325 ± 0.0011	1.4295 ± 0.0011	1.426 ± 0.0011	–	–	–
[4], x1 = 0.801	1.4372 ± 0.0011	1.4336 ± 0.0011	1.4309 ± 0.0011	–	–	–
[4], x1 = 0.9	1.4409 ± 0.0011	1.4376 ± 0.0011	1.4353 ± 0.0011	–	–	–
[4], x1 = 1	1.4445 ± 0.0011	1.4417 ± 0.0011	1.4393 ± 0.0011	–	–	–
[5], x1 = 0.101	–	–	–	15.856 ± 0.19	14.411 ± 0.17	13.099 ± 0.16
[5], x1 = 0.2	–	–	–	16.963 ± 0.2	15.522 ± 0.19	14.197 ± 0.17
[5], x1 = 0.299	–	–	–	18.26 ± 0.22	16.765 ± 0.2	15.4 ± 0.19
[5], x1 = 0.4	–	–	–	19.772 ± 0.24	18.22 ± 0.22	16.76 ± 0.2
[5], x1 = 0.5	–	–	–	21.409 ± 0.26	19.78 ± 0.24	18.225 ± 0.22
[5], x1 = 0.6	–	–	–	23.176 ± 0.28	21.499 ± 0.26	19.794 ± 0.24
[5], x1 = 0.699	–	–	–	25.066 ± 0.3	23.351 ± 0.28	21.52 ± 0.26
[5], x1 = 0.801	–	–	–	27.119 ± 0.33	25.335 ± 0.31	23.403 ± 0.28
[5], x1 = 0.9	–	–	–	29.28 ± 0.35	27.371 ± 0.33	25.287 ± 0.31
[5], x1 = 1	–	–	–	31.587 ± 0.38	29.482 ± 0.35	27.203 ± 0.33

OCCCCO [1,4-butanediol] + CCCCCO
Details	refractive index, 298.15 K	refractive index, 308.15 K	refractive index, 318.15 K	relative permittivity, 298.15 K	relative permittivity, 308.15 K	relative permittivity, 318.15 K
[4], x1 = 0.1	1.4118 ± 0.0011	1.4081 ± 0.0011	1.4051 ± 0.0011	–	–	–
[4], x1 = 0.2	1.4147 ± 0.0011	1.4114 ± 0.0011	1.4089 ± 0.0011	–	–	–
[4], x1 = 0.3	1.4185 ± 0.0011	1.4149 ± 0.0011	1.4119 ± 0.0011	–	–	–
[4], x1 = 0.403	1.4226 ± 0.0011	1.4193 ± 0.0011	1.4166 ± 0.0011	–	–	–
[4], x1 = 0.501	1.4256 ± 0.0011	1.4234 ± 0.0011	1.4201 ± 0.0011	–	–	–
[4], x1 = 0.601	1.4302 ± 0.0011	1.4267 ± 0.0011	1.4242 ± 0.0011	–	–	–
[4], x1 = 0.701	1.4334 ± 0.0011	1.431 ± 0.001	1.428 ± 0.001	–	–	–
[4], x1 = 0.8	1.4375 ± 0.0011	1.4345 ± 0.0011	1.4324 ± 0.0011	–	–	–
[4], x1 = 0.9	1.441 ± 0.0011	1.4382 ± 0.0011	1.4358 ± 0.0011	–	–	–
[4], x1 = 1	1.4445 ± 0.0011	1.4417 ± 0.0011	1.4393 ± 0.0011	–	–	–
[5], x1 = 0.1	–	–	–	16.037 ± 0.19	14.699 ± 0.18	13.391 ± 0.16
[5], x1 = 0.2	–	–	–	17.171 ± 0.21	15.827 ± 0.19	14.452 ± 0.17
[5], x1 = 0.3	–	–	–	18.467 ± 0.22	17.054 ± 0.21	15.646 ± 0.19
[5], x1 = 0.403	–	–	–	19.924 ± 0.24	18.471 ± 0.22	17.026 ± 0.21
[5], x1 = 0.501	–	–	–	21.49 ± 0.26	19.97 ± 0.24	18.416 ± 0.22
[5], x1 = 0.601	–	–	–	23.245 ± 0.28	21.632 ± 0.26	19.971 ± 0.24
[5], x1 = 0.701	–	–	–	25.108 ± 0.3	23.459 ± 0.28	21.616 ± 0.26
[5], x1 = 0.8	–	–	–	27.105 ± 0.33	25.339 ± 0.31	23.393 ± 0.28
[5], x1 = 0.9	–	–	–	29.265 ± 0.35	27.356 ± 0.33	25.251 ± 0.3
[5], x1 = 1	–	–	–	31.587 ± 0.38	29.482 ± 0.35	27.203 ± 0.33

C1COCCO1 [1,4-dioxane]
Details	refractive index, 298.15 K	refractive index, 308.15 K	refractive index, 318.15 K	relative permittivity, 298.15 K	relative permittivity, 308.15 K	relative permittivity, 318.15 K
[1]	1.4202 ± 0.001	1.4144 ± 0.001	1.4086 ± 0.001	–	–	–
[2]	–	–	–	2.229 ± 0.027	2.209 ± 0.027	2.187 ± 0.026

Details	mass density [kg/m3]
[3]	1027.86 ± 0.11

C1COCCO1 [1,4-dioxane] + CC(C)CCO
x2 = 0
Details	refractive index, 298.15 K	refractive index, 308.15 K	refractive index, 318.15 K	relative permittivity, 298.15 K	relative permittivity, 308.15 K	relative permittivity, 318.15 K
[4]	1.4202 ± 0.001	1.4144 ± 0.001	1.4086 ± 0.001	–	–	–
[5]	–	–	–	2.229 ± 0.027	2.209 ± 0.027	2.187 ± 0.026
